Target: T1, human mineralocorticoid receptor (hMR) (Homo sapiens, UniProt P08235)
T1 construct: expressed in transfected cells; host or cells: HEK293
T1 sequence (P08235 726-964 limits assumed): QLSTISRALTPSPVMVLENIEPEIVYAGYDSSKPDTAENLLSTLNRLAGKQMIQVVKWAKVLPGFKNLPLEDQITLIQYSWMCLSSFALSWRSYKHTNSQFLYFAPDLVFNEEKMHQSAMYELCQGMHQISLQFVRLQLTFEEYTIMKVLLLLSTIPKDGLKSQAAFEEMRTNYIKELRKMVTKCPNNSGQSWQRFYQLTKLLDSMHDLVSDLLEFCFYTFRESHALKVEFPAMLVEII
Assay: GAL4-hMR-LBD luciferase reporter assay in HEK293 cells with 1 nM aldosterone (Test Example 1);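 on Imax: 0% is DMSO-only control and 100% is 1 nM aldosterone alone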
Assay type: cell-based
Settings: for IC50: concentration showing Imax/2, HEK293, GAL4-hMR-LBD, 1 nM aldosterone, overnight, read-out: ICmax50; for Emax: HEK293, read-out: Imax
Description: A plasmid pM-hMR-LBD expressing GAL4-hMR receptor, which has a ligand binding domain (LBD, corresponding to approximately 308 amino acids at the carboxy terminus) of human mineralocorticoid receptor (hMR, NM_000901) bonded to a DNA binding domain of yeast transcription factor GAL4 (corresponding to 147 amino acids at the amino terminus), was prepared. Reporter assay was conducted by using a reporter plasmid (such as plasmid pFR-Luc of […] CLONING SYSTEMS) including a luciferase gene, having a sequence (UAS sequence) which binds to the DNA binding domain of GAL4.
The plasmid pM-hMR-LBD and the reporter plasmid as obtained above were gene transferred into renal cell line HEK293 of human fetus by lipofection. On the next day, cells were collected by trypsin treatment, and dispensed with DMEM culture medium containing 5% of FBS treated by activated charcoal, to a white 96-well plate (Costar) with the amount of 95 microliter per well.
The test compounds were used as dissolved in dimethyl sulfoxide at a predetermined concentration, and the test compounds suitably diluted with culture media were added to the cells on the white 96-well plate so that the final concentration becomes 0.1%. […] After the addition, cultivation was carried out overnight.
On the next day, the culture media was removed, and then luciferase substrate (Wako Pure Chemical Industries, Ltd.) was prepared in accordance with the attached document and were added to each well by 50 microliters. Stirring was conducted for approximately 30 minutes, and the amount of luminescence was measured for each well by using Analyst (Molecular Devices), to obtain luciferase activity. A graph which plots relative luciferase activity values, when the luciferase activity value of Control group 1 was taken as 0% and the luciferase activity value of Control group 2 was taken as 100%, for each of the amount of the test compound addition group was made.

SMILES | IC50 [µM] | Emax [%]
Cc1c(C(=O)Nc2ccc(S(C)(=O)=O)cc2)cc(C[C@H](C)O)n1-c1ccc(Cl)cc1OC(F)(F)F (single isomer, unassigned) [Example 42 - isomer A] | > 1 | –
Cc1c(C(=O)Nc2ccc(S(C)(=O)=O)cc2)cc(C[C@H](C)O)n1-c1ccc(F)cc1OC(F)(F)F (single isomer, unassigned) [Example 16 - isomer B] | > 1 | –
Cc1c(C(=O)Nc2ccc(S(C)(=O)=O)cc2)cc(C[C@H](C)O)n1-c1ccc(Cl)cc1Cl [Example 43, 1-(2,4-Dichlorophenyl)-5-[(2S)-2-hydroxypropyl]-2-methyl-N-[4-(methylsulfonyl)phenyl]-1H-pyrrole-3-carboxamide] | 0.04 | 100
Cc1c(C(=O)Nc2ccc(S(C)(=O)=O)cc2)cc(C[C@H](C)O)n1-c1ccc(F)cc1C(F)(F)F [Example 5, 1-[4-Fluoro-2-(trifluoromethyl)phenyl]-5-[(2S)-2-hydroxypropyl]-2-methyl-N-[4-(methylsulfonyl)phenyl]-1H-pyrrole-3-carboxamide] | 0.0039 | 125
Cc1cc(Cl)ccc1-n1c(CCF)cc(C(=O)Nc2ccc(S(C)(=O)=O)cc2)c1C [Example 51, 1-(4-Chloro-2-methylphenyl)-5-(2-fluoroethyl)-2-methyl-N-[4-(methylsulfonyl)phenyl]-1H-pyrrole-3-carboxamide] | 0.019 | 115
Cc1c(C(=O)Nc2ccc(S(C)(=O)=O)cc2)cc(C[C@H](C)O)n1-c1ccc(Cl)cc1Oc1ccc(F)cc1 (single isomer, unassigned) [Example 45 - isomer A] | 0.0019 | 105
CCc1c(C(=O)Nc2ccc(S(C)(=O)=O)cc2)cc(C[C@H](C)O)n1-c1ccc(F)cc1Cl (single isomer, unassigned) [Example 44 - isomer A] | > 1 | –
Cc1c(C(=O)Nc2ccc(S(C)(=O)=O)cc2)cc(CCO)n1-c1ccc(F)cc1Cl (single isomer, unassigned) [Example 3 - isomer A, 1-(2-Chloro-4-fluorophenyl)-5-(2-hydroxyethyl)-2-methyl-N-[4-(methylsulfonyl)phenyl]-1H-pyrrole-3-carboxamide] | 0.021 | 114
Cc1c(C(=O)Nc2ccc(S(C)(=O)=O)cc2)cc(C[C@H](C)O)n1-c1ccc(Cl)cc1OC(F)F [Example 11, 1-[4-Chloro-2-(difluoromethoxy)phenyl]-5-[(2S)-2-hydroxypropyl]-2-methyl-N-[4-(methylsulfonyl)phenyl]-1H-pyrrole-3-carboxamide] | 0.013 | 107
Cc1c(C(=O)Nc2ccc(S(N)(=O)=O)c(Cl)c2)cc(C[C@H](C)O)n1-c1ccc(F)cc1C(F)(F)F (single isomer, unassigned) [Example 12 - isomer B] | > 1 | –
Cc1c(C(=O)Nc2ccc(S(C)(=O)=O)cc2)cc(C[C@H](C)O)n1-c1ccc(F)cc1Cl [Example 40, 1-(2-Chloro-4-fluorophenyl)-5-[(2S)-2-hydroxypropyl]-2-methyl-N-[4-(methylsulfonyl)phenyl]-1H-pyrrole-3-carboxamide] | 0.026 | 112
Cc1c(C(=O)Nc2ccc(S(N)(=O)=O)c(Cl)c2)cc(C[C@H](C)O)n1-c1ccc(F)cc1C(F)(F)F [Example 12, N-[4-(Aminosulfonyl)-3-chlorophenyl]-1-[4-fluoro-2-(trifluoromethyl)phenyl]-5-[(2S)-2-hydroxypropyl]-2-methyl-1H-pyrrole-3-carboxamide] | 0.0068 | 108
Cc1c(C(=O)Nc2ccc(S(N)(=O)=O)c(Cl)c2)cc(C[C@H](C)O)n1-c1ccc(F)cc1Cl (single isomer, unassigned) [Example 49 - isomer B] | 0.0045 | 104
Cc1c(C(=O)Nc2ccc(S(C)(=O)=O)cc2)cc(C[C@H](C)O)n1-c1ccc(F)cc1OC(F)F (single isomer, unassigned) [Example 9 - isomer B] | > 1 | –
